Holding throughout (assay type): cell-based
Experiment [1] deals with T1, KDM4A (Homo sapiens, UniProt O75164).
T1 construct: Full length; host or cells: U2OS
T1 sequence (O75164 1-1064): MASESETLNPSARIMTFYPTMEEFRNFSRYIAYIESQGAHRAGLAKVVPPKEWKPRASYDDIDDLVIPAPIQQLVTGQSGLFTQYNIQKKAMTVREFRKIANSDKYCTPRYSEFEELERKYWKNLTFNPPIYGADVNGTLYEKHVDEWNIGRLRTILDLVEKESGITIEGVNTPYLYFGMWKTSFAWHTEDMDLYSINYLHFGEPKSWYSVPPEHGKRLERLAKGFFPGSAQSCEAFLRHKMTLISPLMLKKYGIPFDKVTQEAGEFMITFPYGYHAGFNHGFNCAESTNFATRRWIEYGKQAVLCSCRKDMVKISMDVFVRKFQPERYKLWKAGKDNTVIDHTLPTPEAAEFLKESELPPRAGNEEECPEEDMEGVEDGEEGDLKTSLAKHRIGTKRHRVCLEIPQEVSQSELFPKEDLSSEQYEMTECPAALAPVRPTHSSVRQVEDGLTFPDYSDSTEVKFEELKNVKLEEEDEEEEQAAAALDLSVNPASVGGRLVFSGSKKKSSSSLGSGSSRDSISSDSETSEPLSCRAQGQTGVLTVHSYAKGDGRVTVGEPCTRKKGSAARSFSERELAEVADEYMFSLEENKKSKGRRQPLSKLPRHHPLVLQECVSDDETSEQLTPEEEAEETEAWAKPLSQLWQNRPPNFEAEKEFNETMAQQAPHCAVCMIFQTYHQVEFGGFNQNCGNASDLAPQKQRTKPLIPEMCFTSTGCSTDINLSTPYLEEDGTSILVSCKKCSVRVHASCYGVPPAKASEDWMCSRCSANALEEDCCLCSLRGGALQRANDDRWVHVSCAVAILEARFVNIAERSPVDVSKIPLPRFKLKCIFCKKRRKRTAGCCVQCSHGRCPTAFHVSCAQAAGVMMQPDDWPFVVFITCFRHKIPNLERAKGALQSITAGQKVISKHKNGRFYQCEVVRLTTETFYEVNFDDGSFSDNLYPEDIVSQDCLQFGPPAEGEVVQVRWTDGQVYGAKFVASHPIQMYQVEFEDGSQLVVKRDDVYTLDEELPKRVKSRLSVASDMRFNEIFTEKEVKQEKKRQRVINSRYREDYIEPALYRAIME
Kind of experiment: Histone lysine demethylase immunofluorescence assay, U2OS cells transfected with KDM4A. To be noted: U2OS cells transfected with pCMVHA KDM4A; mark detected H3K9me3; 20 hours. The procedure:
(§1) U2OS cells were seeded 24 hours before transfection. Transfection was performed with Fugene HD transfection reagent as recommended by the manufacturer. 6 hours after transfection, the cells were harvested and seeded into multi well plates into media containing compound. The media used was DMEM containing 10% FBS and pen/strep. 20 hours after incubation of cells with compounds, the cells were washed in PBS, harvested by fixation with formaldehyde 4% aqueous solution, and washed in PBS. Subsequently, the cells were permeabilized in PBS with 0.2% Triton X-100 for. Blocking was performed in PBS with 0.2% Triton X-100 and 5% FBS. The cells were incubated with primary antibodies in blocking solution over night at 4° C. The primary antibodies used in the assays were HA.11 (Covance, MMS-101P) and the antibody detecting the mark specified in the table below. After incubation with primary antibodies, the cells were washed with PBS, incubated with secondary antibodies (Alexa fluor 594 goat anti rabbit IgG, Invitrogen, A11012; Alexa flour 488 donkey anti mouse IgG, Invitrogen, A21202) and Hoechst, (Sigma, 33342) in blocking solution, and washed again with PBS. Finally, PBS was added and high throughput imaging and analysis were performed by an IN Cell Analyzer 1000 (GE Healthcare). The robot software analyzed individual cells and divided these into HA+ (transfected cells) and HA− (non-transfected cells). The IC50 values were based on an average measure of the staining of the mark specified in the table below in the transfected cells.

Experiment [2] deals with T2, KDM6B (Homo sapiens, UniProt O15054).
T2 construct: (a.a. 1026-1682); host or cells: U2OS
T2 sequence (O15054 1026-1682 isoform O15054-1): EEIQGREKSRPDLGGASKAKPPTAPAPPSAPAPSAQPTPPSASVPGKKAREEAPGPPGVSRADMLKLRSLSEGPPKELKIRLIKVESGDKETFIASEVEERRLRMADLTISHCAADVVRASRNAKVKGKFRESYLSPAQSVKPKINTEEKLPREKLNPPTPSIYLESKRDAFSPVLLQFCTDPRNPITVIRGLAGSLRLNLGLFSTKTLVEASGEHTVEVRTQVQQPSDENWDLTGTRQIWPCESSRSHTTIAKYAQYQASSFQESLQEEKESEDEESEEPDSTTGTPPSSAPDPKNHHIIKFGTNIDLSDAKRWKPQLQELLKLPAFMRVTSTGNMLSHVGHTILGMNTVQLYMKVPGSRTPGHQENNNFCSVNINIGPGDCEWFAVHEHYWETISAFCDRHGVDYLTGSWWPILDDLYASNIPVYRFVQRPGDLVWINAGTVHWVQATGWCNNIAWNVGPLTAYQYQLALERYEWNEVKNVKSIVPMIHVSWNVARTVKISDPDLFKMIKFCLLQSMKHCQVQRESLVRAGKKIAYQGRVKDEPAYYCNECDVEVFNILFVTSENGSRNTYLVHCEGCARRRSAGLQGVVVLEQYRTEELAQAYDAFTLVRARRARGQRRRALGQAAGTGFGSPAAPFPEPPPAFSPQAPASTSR
Briefly: Histone lysine demethylase immunofluorescence assay, U2OS cells transfected with KDM6B. To be noted: U2OS cells transfected with pCMVHA KDM6B; mark detected H3K27me2; 20 hours. As to the method:
as §1

For experiment [3], the target named is T3, KDM2A (Homo sapiens, UniProt Q9Y2K7).
T3 construct: Full length; host or cells: U2OS
T3 sequence (Q9Y2K7 1-1162): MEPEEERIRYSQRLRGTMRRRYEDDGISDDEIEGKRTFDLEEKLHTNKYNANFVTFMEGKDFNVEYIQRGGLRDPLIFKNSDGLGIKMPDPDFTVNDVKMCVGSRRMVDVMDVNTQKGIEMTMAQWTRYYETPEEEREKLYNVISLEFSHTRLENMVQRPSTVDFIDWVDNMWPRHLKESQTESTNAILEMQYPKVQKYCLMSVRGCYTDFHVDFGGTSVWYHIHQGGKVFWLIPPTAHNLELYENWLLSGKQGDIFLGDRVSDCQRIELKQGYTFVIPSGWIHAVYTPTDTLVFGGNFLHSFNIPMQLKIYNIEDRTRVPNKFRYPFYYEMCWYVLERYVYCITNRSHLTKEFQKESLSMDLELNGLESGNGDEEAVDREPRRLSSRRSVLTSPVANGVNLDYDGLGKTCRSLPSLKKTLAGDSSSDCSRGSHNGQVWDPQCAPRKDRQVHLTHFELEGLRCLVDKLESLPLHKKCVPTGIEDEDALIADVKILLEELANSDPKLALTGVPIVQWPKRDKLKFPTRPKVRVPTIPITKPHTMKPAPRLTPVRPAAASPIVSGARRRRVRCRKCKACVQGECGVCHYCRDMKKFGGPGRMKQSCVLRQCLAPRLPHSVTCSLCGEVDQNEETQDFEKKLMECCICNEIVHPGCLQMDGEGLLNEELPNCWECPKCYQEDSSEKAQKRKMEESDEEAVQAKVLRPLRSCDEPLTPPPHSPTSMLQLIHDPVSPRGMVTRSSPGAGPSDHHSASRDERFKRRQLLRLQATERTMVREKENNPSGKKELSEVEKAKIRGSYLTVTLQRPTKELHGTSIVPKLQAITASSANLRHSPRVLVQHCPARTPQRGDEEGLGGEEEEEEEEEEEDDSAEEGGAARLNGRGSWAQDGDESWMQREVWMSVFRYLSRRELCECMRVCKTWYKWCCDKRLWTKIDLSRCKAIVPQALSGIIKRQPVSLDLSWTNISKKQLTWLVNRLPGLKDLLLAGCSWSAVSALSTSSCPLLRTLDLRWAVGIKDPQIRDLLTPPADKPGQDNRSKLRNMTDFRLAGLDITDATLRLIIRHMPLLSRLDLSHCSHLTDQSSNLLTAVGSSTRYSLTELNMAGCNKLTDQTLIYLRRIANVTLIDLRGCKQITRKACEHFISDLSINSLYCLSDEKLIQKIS
Briefly: Histone lysine demethylase immunofluorescence assay, U2OS cells transfected with KDM2A. To be noted: U2OS cells transfected with pCMVHA KDM2A; mark detected H3K36me2; 20 hours. The procedure: as §1

Broadly, the IC50 is the concentration at which inhibition is half-maximal. A lower IC50 goes with greater potency. As for `CCN(CCN(C)C)C(=O)CNCc1cc(CNC(=O)C(F)(F)F)ccn1` [Compound 25, N-[(2-{[({[2-(dimethylamino)ethyl]-(ethyl)carbamoyl}-methyl)amino]methyl}-pyrtdin-4-yl)methyl]-2,2,2-trifluoroacetamide], the IC50 in experiment [1] was 250 to 2500 nM; in experiment [2], greater than 2500 nM; in experiment [3] it was greater than 2500 nM.

`CCN(CCN(C)C)C(=O)CNCc1cc(C2OCC3(CC3)CN2C(=O)C(F)(F)F)ccn1` (stereo not shown) [Compound 91, N-[2--(dimethylamino)-ethyl]-N-ethyl-2-[({4-[7-(trifluoroacetyl)-5-oxa-7-azaspiro[2.5]-octan-6-yl]pyridin-2-yl}methyl)amino]-acetamide]: the IC50 was less than 250 nM in experiment [1], greater than 2500 nM in experiment [2] and greater than 2500 nM in experiment [3].

Molecule `CCN(CCC#N)C(=O)CNCc1cc(/C=N/CCO)ccn1` [Compound 94, N-(2-cyanoethyl)-N-ethyl-2-[({4-[[(2-hydroxyethyl)imino]-methyl]pyridin-2-yl}methyl)amino]-acetamide] showed an IC50 in experiment [3] greater than 2500 nM.

These data come from patent US9650339B2, “Inhibitors of histone demethylases” (Gilead Sciences, Inc., priority 2013, dated 2017).
